Key:
[1] = Pramlintide on weight and anthropometric parameters, 16-week double-blind placebo-controlled study in obese subjects; assay type: in vivo, human
Experimental: In a randomized, double-blind, placebo-controlled study, changes in body weight and anthropometric parameters, as well as indicators of glycemic control (e.g., HbA1c), serum lipids and glucose tolerance, were assessed in response to pramlintide administration to obese (BMI≧30 kg/m^2 to ≦50 kg/m^2) non-diabetic individuals and obese individuals with non-insulin treated type 2 diabetes mellitus.

[2] = Pramlintide on satiation and binge eating (Binge Eating Scale), single-blind placebo-controlled study in obese subjects; assay type: in vivo, human
Experimental: The ability of the amylin agonist pramlintide to control or influence eating behavior was examined in human subjects. For the assessment, 24 hour-food intake (FI, ad-libitum meals), weight, feelings of hunger and fullness, and binge-eating (Binge Eating Scale, BES) were measured in a single-blind, placebo-controlled study. Obese subjects without eating disorders (50/50% female/male; BMI 35.61±3.98 kg/m^2, mean±SD) were randomized to six weeks of treatment with pramlintide or placebo. Pramlintide (180 μg) was administered subcutaneously three times per day (TID) prior to meals for 6 weeks and no lifestyle intervention was provided (TID evaluable N=59, placebo evaluable N=25). […] A follow-up evaluation of the subjects was performed four weeks after cessation of the treatment. In addition to the measurement of food intake and weight, subjects were also assessed for the feelings of hunger and fullness over a 12-hour observation period on the day before treatment, the first day of treatment, and on Day 43. During the study, subjects were categorized by binge-eating severity as mild, moderate, or severe based on total BES scores.

[3] = human trials; cited from earlier work
[4] = Adsorption onto glass container in liquid form; assay type: physicochemical
[5] = Combination therapy amylin + sibutramine in DIO prone rats; assay type: in vivo, rat; settings: two weeks; for change in body weight (vehicle-corrected): amylin 100 μg/kg/day and/or sibutramine 3 mg/kg/day by mini-pumps; for fat mass / lean (protein) mass: amylin 100 μg/kg/day and/or sibutramine 3 mg/kg/day
Experimental: In-bred DIO prone rats were obtained from Charles Rivers Labs. These rats were developed from a line of Crl:CD®(SD)BR rats that are prone to become obese on a diet relatively high in fat and energy (Levin, 1997). The rats were housed individually in shoebox cages at 22° C. in a 12/12-hour light dark cycle. […] At the end of the fattening period they typically have a mean body weight of 500 g. Rats were then divided into treatment groups and implanted with two subcutaneous mini-pumps (Durect Corp).

[6] = Effect of amylin on high fat food preference, 11-week osmotic pump treatment; assay type: in vivo, rat
Experimental: The ability of amylin to modify food preference was examined in an animal model. […] Animals had access to both low fat chow (6% fat kcal, 54% cornstarch kcal; #7012, Harlan Teklad, Madison, Wis.) and high fat chow (“palatable chow”) (58% fat kcal and 26% sucrose kcal; #D12311, Research Diets, New Brunswick, N.J.). Food intake and body weight were measured weekly. Just prior to treatment, and at the end of treatment, the amount of fat and lean tissue (expressed as g of tissue per 100 g of body weight) was measured via MRI (Echo MRI for rats, EchoMRI, Houston, Tex.).
Energy expenditure was assessed using an Oxymax animal monitoring system (Columbus Instruments, Columbus, Ohio) to measure oxygen consumption and carbon dioxide generation over time. From these measurements, heat (in kcal) was calculated and energy expenditure assessed.

[7] = Effect of amylin on body composition in DIO prone rats, 14 days of treatment then washout; assay type: in vivo, rat
Experimental: Diet-induced obesity (DIO) in the in the Sprague-Dawley rat is a valuable model for the study of obesity and regulation of energy homeostasis. […] All rats were housed individually in shoebox cages at 22° C. in a 12/12-hour light dark cycle. Amylin was administered by subcutaneous osmotic mini-pump (Durect Corp, Calif.). […] On day 14, mini-pumps were removed and replaced with pumps containing vehicle. For body composition, rats were scanned in a specialized rodent NMR machine (Echo Medical Systems) prior to drug treatment, and at the conclusion of the experiment, which enabled the calculation of percent changes in fat and lean composition (e.g., % body fat after treatment−% body fat at baseline=change in % body fat).

[8] = Effect of amylin on sucrose food preference, sugar withdrawal and restraint stress; assay type: in vivo, rat
Experimental: The ability of amylin to modify food preference was examined in an animal model. Male, Sprague-Dawley® rats were submitted to a sugar withdrawal paradigm and observed for effects of stress on sugar intake. […] All rats were provided with ad libitum access to standard chow, water, and a 30% sucrose drink. Subsequently, the sucrose drink was removed and half of the rats were subjected, daily, to 3 h of mild restraint stress for 3 successive days. After 3 days, sucrose was provided and its daily average consumption was measured over 4 days. Chow intake was also measured over the 3 days of withdrawal and stress and over the following 4 days when sucrose was re-introduced. No restraint was applied during the 4 days of sucrose re-introduction. Results of this assay are shown in FIG. 1(A-D) where * is P<0.05 by ANOVA and Fisher LSD post-hoc analyses.

[9] = e.g., provoking marked hyperlactemia followed by hyperglycemia; cited from earlier work
[10] = cited from earlier work
[11] = 16 weeks, least squares mean±SE
[12] = after 16 weeks, evaluable population
[13] = CSI (N = 47), Baseline (Day −1)
[14] = TID (N = 59), Baseline (Day −1)
[15] = pramlintide 180 μg s.c. TID, after 6 weeks
[16] = at 11 weeks, compared to controls
[17] = day 28, after amylin days 1-14 and vehicle days 15-28
[18] = rat amylin 100 μg/kg/d s.c. mini-pump, days 2-14, vs vehicle controls

Compound: CC[C@H](C)[C@H](NC(=O)[C@@H]1CCCN1C(=O)CNC(=O)[C@H](Cc1ccccc1)NC(=O)[C@H](CC(N)=O)NC(=O)[C@H](CC(N)=O)NC(=O)[C@H](CO)NC(=O)[C@H](CO)NC(=O)[C@H](Cc1c[nH]cn1)NC(=O)[C@@H](NC(=O)[C@H](CC(C)C)NC(=O)[C@H](Cc1ccccc1)NC(=O)[C@H](CC(N)=O)NC(=O)[C@H](C)NC(=O)[C@H](CC(C)C)NC(=O)[C@H](CCCNC(=N)N)NC(=O)[C@H](CCC(N)=O)NC(=O)[C@@H](NC(=O)[C@H](C)NC(=O)[C@@H]1CSSC[C@H](NC(=O)[C@@H](N)CCCCN)C(=O)N[C@@H](CC(N)=O)C(=O)N[C@@H]([C@@H](C)O)C(=O)N[C@@H](C)C(=O)N[C@@H]([C@@H](C)O)C(=O)N1)[C@@H](C)O)C(C)C)C(=O)N[C@@H](CC(C)C)C(=O)N1CCC[C@H]1C(=O)N1CCC[C@H]1C(=O)N[C@H](C(=O)N[C@@H](CC(N)=O)C(=O)N[C@H](C(=O)NCC(=O)N[C@@H](CO)C(=O)N[C@@H](CC(N)=O)C(=O)N[C@H](C(=O)N[C@@H](Cc1ccc(O)cc1)C(N)=O)[C@@H](C)O)C(C)C)[C@@H](C)O [Pramlintide, ^25,28,29Pro-h-amylin]
- placebo-corrected reduction in hip circumference [1, 11]: 2.69±0.82 cm
- placebo-corrected reduction in waist circumference [1, 11]: 2.691±1.08 cm
- percentage of subjects achieving >5% reduction in baseline body weight ([1]; Class I (BMI <35 kg/m^2), n 43, placebo 0%): 39.5%
- percentage of subjects achieving >5% reduction in baseline body weight ([1]; Class II (BMI ≧35 kg/m^2 to <40 kg/m^2), n 25, placebo 0%): 28.0%
- percentage of subjects achieving >5% reduction in baseline body weight ([1]; Class II (BMI ≧40 kg/m^2), n 29, placebo 5.0%): 20.7%
- placebo-corrected mean weight loss [1, 12]: 3.52 kg
- placebo-corrected mean weight loss, of initial body weight [1, 12]: 3.6%
- subjects who lost ≧5% of body weight ([1]; after 16 weeks, placebo 2%): 31%
- reduction of mean total caloric intake compared with pooled placebo ([2]; CSI 50 μg/h, Day 43): ~7%
- reduction of mean total caloric intake compared with pooled placebo ([2]; CSI 50 μg/h, first day of treatment): approximately 22%
- subjects with total BES score >17 to <27 (Moderate) [2, 13]: (36.2) %
- subjects with total BES score ≦17 (Mild) [2, 13]: (51.1) %
- subjects with total BES score ≧27 (Severe) [2, 13]: (12.8) %
- subjects with total BES score >17 to <27 (Moderate) ([2]; CSI (N = 47), Day 42): (17.0) %
- subjects with total BES score ≦17 (Mild) ([2]; CSI (N = 47), Day 42): (74.5) %
- subjects with total BES score ≧27 (Severe) ([2]; CSI (N = 47), Day 42): (8.5) %
- subjects with total BES score >17 to <27 (Moderate) ([2]; CSI (N = 47), Day 72): (14.9) %
- subjects with total BES score ≦17 (Mild) ([2]; CSI (N = 47), Day 72): (63.8) %
- subjects with total BES score ≧27 (Severe) ([2]; CSI (N = 47), Day 72): (8.5) %
- subjects with total BES score >17 to <27 (Moderate) [2, 14]: (23.7) %
- subjects with total BES score ≦17 (Mild) [2, 14]: (64.4) %
- subjects with total BES score ≧27 (Severe) [2, 14]: (8.5) %
- subjects with total BES score ≦17 (Mild) ([2]; TID (N = 59), Baseline (Day −1), listed as pramlintide): 64.4%
- subjects with total BES score >17 to <27 (Moderate) ([2]; TID (N = 59), Day 42): (11.9) %
- subjects with total BES score ≦17 (Mild) ([2]; TID (N = 59), Day 42): (83.1) %
- subjects with total BES score ≧27 (Severe) ([2]; TID (N = 59), Day 42): (5.1) %
- subjects with total BES score ≦17 (Mild) ([2]; TID (N = 59), Day 42, listed as pramlintide): 83.1%
- subjects with total BES score >17 to <27 (Moderate) ([2]; TID (N = 59), Day 72): (13.6) %
- subjects with total BES score ≦17 (Mild) ([2]; TID (N = 59), Day 72): (76.3) %
- subjects with total BES score ≧27 (Severe) ([2]; TID (N = 59), Day 72): (5.1) %
- reduction of mean total caloric intake compared with pooled placebo ([2]; TID, Day 43): ~15%
- reduction of mean total caloric intake compared with pooled placebo ([2]; TID, first day of treatment): approximately 17%
- placebo-corrected reduction from baseline in mean BES score ([2]; after 6 weeks): −45±13%
- proportion of subjects shifting to a lower binge-eating severity category ([2]; after 6 weeks, placebo […]): 24.6%
- reductions from baseline in the total BES score after cessation ([2]; four weeks after cessation of treatment): no longer statistically significant
- placebo-corrected reduction from baseline in 24-hour food intake [2, 15]: -489 ± 183 kcal
- placebo-corrected reduction from baseline in weight [2, 15]: −2.2±0.5%
- weight or weight gain [3]: reduce weight or weight gain
- tendency to adsorb onto the glass [4]: does not have a tendency to adsorb onto the glass

Compound: CC(C)CC(N(C)C)C1(c2ccc(Cl)cc2)CCC1 (stereo not drawn) [sibutramine]
- change in body weight (vehicle-corrected) [5]: approximately 5%
- fat mass [5]: Fat mass loss was also evident
- lean (protein) mass [5]: relatively unchanged

Compound: Rat amylin
- 24 h energy expenditure, dark phase increase [6, 16]: 6.6%
- 24 h energy expenditure, light phase increase [6, 16]: 9.7%
- fat mass, change in percent of total mass ([6]; pre- vs post-treatment, MRI, vehicle 3.7±0.9): −3.6±1.0%
- lean tissue, change in percent of total mass ([6]; pre- vs post-treatment, MRI, vehicle −0.53±0.21, not significant): 0.08±0.23%
- percent total calories from low fat chow (main effect) ([6]; rat amylin 300 μg/kg/d, 11 weeks, vehicle 4.3±0.6): 12.2±3.2%
- body weight gain ([6]; rat amylin 300 μg/kg/d, 11 weeks, vehicle 126±10): 50 ± 11 g
- calories from low fat chow (main effect) ([6]; rat amylin 300 μg/kg/d, 11 weeks, vehicle 271±42): 633 ± 145 kcal
- calories from high fat chow over 11 weeks (FIG. 2) ([6]; rat amylin 300 μg/kg/d, 11 weeks, vehicle 6315±111, mean±SEM): 5309 ± 202 kcal
- percent of body fat [7, 17]: lower percent of body fat
- percent of lean body mass [7, 17]: higher percent of lean body mass
- body weight [7, 18]: significantly decreased
- cumulative food intake [7, 18]: significantly decreased
- change in body weight (vehicle-corrected) [5]: approximately 5%
- fat mass [5]: Fat mass loss was also evident
- lean (protein) mass [5]: increased
- average sucrose to chow consumption ratio (as % of baseline) ([8]; rat amylin 300 μg/kg/d by osmotic pump, restraint-stressed rats, 4 days of sucrose re-introduction): prevents the increase in the average sucrose to chow consumption ratio
- sucrose intake ([8]; rat amylin 300 μg/kg/d, stressed and non-stressed rats, vs vehicle treated controls): decreases sucrose intake in both stressed and non-stressed conditions
- stress-induced decrease in chow intake and total kcals ([8]; rat amylin 300 μg/kg/d, treatment group vs control group): less pronounced in the treatment group

Compound: ^18Arg^25,28Pro-h-amylin (KCNTATCATQRLANFLVRSSNNFGPILPSTNVGSNTY)
- amylin activity in vivo [9]: show amylin activity in vivo
- solubility and stability characteristics compared to human amylin [10]: more desirable solubility and stability characteristics

Compound: ^25Pro^26Val^28,29Pro-h-amylin (KCNTATCATQRLANFLVHSSNNFGPVLPPTNVGSNTY)
- solubility and stability characteristics compared to human amylin [10]: more desirable solubility and stability characteristics

Compound: ^28Pro-h-amylin (KCNTATCATQRLANFLVHSSNNFGAILPSTNVGSNTY)
- amylin activity in vivo [9]: show amylin activity in vivo

Compound: des-^1Lys-h-amylin (CNTATCATQRLANFLVHSSNNFGAILSSTNVGSNTY)
- amylin activity in vivo [9]: show amylin activity in vivo

Compound: des-^1Lys^18Arg^25,28Pro-h-amylin (CNTATCATQRLANFLVRSSNNFGPILPSTNVGSNTY)
- amylin activity in vivo [9]: show amylin activity in vivo
